The values below come from patent publication US11033539B2, “Compounds of formulas (VII), (VIII), (IX), (XI), (XII), (XIII), and (XIV) as muscarinic receptor 4(M4) antagonists for treating neurological diseases” (Neurocrine Biosciences, Inc., priority 2015, dated 2021).

The structures appear in SMILES notation.

The target of assay [1] is human M4 receptor (Homo sapiens (Human), UniProt P08173). In words: Radioligand (tritiated N-methylscopolamine) binding assay, M4. Conditions: Ki against the M4 receptor; membranes from CHO cells expressing human M4; tritiated N-methylscopolamine 1.5 nM; read-out: Ki. The essentials: (§1)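 CHO membranes; 1.5 nM radioligand; 12-point compound dose-response, 10 μM to […]; HEPES/NaCl/MgCl2/EDTA buffer pH 7.4; 90 min, 37 °C. PEI-treated glass fiber filtration, radioactivity counting. Ki from inhibition of binding.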

The target in assay [2] is human M3 receptor (Homo sapiens (Human), UniProt P20309). In words: Radioligand (tritiated N-methylscopolamine) binding assay, M3. The conditions noted are these: CHO cell membranes expressing human M3; 1.5 nM tritiated N-methylscopolamine; 90 min, 37° C.; read-out: Ki against M3 receptor (Table 21, M3). In outline: as §1
The target of assay [3] is human M5 receptor (Homo sapiens (Human), UniProt P08912). In words: Radioligand (tritiated N-methylscopolamine) binding assay, M5. The conditions noted are these: CHO cell membranes expressing human M5; 1.5 nM tritiated N-methylscopolamine; 90 min, 37° C.; read-out: Ki against M5 receptor (Table 21, M5). In outline:
as §1

The target of assay [4] is human M1 receptor (Homo sapiens (Human), UniProt P11229). In words: Radioligand (tritiated N-methylscopolamine) binding assay, M1. Conditions: CHO cell membranes expressing human M1; 1.5 nM tritiated N-methylscopolamine; 90 min, 37° C.; read-out: Ki against M1 receptor (Table 21, M1). In outline: as §1
Assay [5] has as its target human M2 receptor (Homo sapiens (Human), UniProt P08172). In words: Radioligand (tritiated N-methylscopolamine) binding assay, M2. The conditions noted are these: CHO cell membranes expressing human M2; 1.5 nM tritiated N-methylscopolamine; 90 min, 37° C.; read-out: Ki against M2 receptor (Table 21, M2). The essentials:
as §1

human M1 receptor, sequence (P11229 whole entry): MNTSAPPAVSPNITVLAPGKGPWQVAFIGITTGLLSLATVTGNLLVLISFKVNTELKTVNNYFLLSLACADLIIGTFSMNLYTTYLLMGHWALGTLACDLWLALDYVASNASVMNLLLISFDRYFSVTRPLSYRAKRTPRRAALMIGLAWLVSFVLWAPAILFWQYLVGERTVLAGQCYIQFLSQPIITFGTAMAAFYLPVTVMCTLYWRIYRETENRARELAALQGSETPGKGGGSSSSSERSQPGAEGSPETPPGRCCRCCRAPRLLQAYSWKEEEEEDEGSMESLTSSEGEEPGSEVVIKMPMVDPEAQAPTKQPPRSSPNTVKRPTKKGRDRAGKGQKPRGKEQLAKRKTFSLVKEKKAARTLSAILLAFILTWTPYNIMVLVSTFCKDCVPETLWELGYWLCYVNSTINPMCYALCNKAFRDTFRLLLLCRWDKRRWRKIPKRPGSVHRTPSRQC
human M2 receptor, sequence (P08172 whole entry): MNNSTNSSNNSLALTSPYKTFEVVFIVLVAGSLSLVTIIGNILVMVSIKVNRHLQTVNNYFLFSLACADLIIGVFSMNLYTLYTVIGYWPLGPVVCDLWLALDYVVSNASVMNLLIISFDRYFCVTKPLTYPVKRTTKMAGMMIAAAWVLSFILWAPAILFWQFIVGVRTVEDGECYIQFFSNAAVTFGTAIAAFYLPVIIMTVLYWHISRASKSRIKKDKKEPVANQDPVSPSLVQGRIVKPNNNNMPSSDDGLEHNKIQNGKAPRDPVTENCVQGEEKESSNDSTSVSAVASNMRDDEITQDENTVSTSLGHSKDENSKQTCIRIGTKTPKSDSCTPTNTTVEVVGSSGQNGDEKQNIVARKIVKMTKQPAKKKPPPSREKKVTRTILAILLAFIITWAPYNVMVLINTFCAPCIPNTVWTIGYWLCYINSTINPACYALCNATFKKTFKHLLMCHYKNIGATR
human M5 receptor, sequence (P08912 whole entry): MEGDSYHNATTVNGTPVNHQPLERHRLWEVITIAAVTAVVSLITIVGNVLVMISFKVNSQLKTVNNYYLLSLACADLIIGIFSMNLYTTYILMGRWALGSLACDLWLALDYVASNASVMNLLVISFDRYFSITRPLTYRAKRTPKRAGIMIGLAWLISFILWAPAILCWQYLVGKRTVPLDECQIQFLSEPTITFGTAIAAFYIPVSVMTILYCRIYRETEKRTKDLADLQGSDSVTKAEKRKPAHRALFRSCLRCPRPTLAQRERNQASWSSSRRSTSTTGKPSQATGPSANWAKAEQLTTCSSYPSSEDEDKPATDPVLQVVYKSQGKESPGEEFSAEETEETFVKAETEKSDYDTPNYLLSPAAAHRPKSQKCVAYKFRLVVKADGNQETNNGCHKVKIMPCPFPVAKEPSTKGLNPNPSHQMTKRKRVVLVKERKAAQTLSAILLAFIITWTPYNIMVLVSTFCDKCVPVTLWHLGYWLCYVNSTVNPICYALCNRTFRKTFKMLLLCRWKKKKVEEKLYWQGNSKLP
human M4 receptor, sequence (P08173 whole entry): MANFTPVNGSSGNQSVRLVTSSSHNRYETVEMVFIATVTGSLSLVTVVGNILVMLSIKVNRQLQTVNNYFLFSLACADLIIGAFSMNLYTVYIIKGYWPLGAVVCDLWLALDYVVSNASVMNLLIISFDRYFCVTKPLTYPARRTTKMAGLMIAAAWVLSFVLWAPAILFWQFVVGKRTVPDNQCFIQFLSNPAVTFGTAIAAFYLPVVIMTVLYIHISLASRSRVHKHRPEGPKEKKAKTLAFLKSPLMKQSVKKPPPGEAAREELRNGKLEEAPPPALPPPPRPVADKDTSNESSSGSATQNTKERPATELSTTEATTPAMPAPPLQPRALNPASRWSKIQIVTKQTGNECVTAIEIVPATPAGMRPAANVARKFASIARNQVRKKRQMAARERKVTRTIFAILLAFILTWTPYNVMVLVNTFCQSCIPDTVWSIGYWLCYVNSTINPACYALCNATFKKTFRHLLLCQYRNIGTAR
human M3 receptor, sequence (P20309 whole entry): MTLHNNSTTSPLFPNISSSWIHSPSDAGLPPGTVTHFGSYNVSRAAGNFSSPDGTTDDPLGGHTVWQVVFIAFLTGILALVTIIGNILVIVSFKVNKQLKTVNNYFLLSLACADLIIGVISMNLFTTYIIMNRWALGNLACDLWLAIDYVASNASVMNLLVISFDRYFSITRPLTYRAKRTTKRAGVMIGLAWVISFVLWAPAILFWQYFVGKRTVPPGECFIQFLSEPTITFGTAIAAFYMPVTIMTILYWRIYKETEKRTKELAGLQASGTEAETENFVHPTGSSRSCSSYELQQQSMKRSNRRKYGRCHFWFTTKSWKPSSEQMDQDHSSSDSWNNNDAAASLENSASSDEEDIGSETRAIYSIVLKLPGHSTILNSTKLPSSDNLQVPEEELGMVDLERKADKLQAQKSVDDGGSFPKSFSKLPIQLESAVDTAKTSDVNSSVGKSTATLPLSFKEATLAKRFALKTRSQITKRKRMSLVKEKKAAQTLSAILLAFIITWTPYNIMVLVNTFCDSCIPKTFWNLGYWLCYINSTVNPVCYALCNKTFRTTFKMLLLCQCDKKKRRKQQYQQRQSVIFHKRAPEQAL

`C[C@@H]1CN(c2cnc(C#N)nc2)CCN1C(=O)NCCC1CCN(Cc2ccccc2)CC1` [4-80, (2R)-N-[2-(1-benzylpiperidin-4-yl)ethyl]-4-(2-cyanopyrimidin-5-yl)-2-methylpiperazine-1-carboxamide]: the Ki in assay [1] is less than 10 nM; in assay [2], more than 1000 nM; in assay [3], more than 1000 nM; in assay [4] it was 100 to 1000 nM; in assay [5] it was 100 to 1000 nM.

On to `C[C@@H]1CN(c2ncc(C#N)c(N)n2)CCN1C(=O)NCCC1CCN(Cc2ccccc2)CC1` [5-1, (2R)-4-(4-amino-5-cyanopyrimidin-2-yl)-N-[2-(1-benzylpiperidin-4-yl)ethyl]-2-methylpiperazine-1-carboxamide], for which the Ki in assay [1] was less than 10 nM; in assay [2], more than 1000 nM; in assay [3] it was more than 1000 nM; in assay [4] it was more than 1000 nM; in assay [5], 100 to 1000 nM.

For `C[C@@H]1CN(c2nc(Cl)cc(C#N)n2)CCN1C(=O)NCCC1CCN(Cc2ccccc2)CC1` [5-5, (2R)-N-[2-(1-benzylpiperidin-4-yl)ethyl]-4-(4-chloro-6-cyanopyrimidin-2-yl)-2-methylpiperazine-1-carboxamide], the inhibition constant (Ki) is less than 10 nM in assay [1]; more than 1000 nM in assay [2]; more than 1000 nM in assay [3]; 100 to 1000 nM in assay [4]; 100 to 1000 nM in assay [5].

With `C[C@@H]1CN(c2nccc(C(F)(F)F)n2)CCN1C(=O)NCCC1CCN(Cc2ccccc2)CC1` [5-8, (2R)-N-[2-(1-benzylpiperidin-4-yl)ethyl]-2-methyl-4-[4-(trifluoromethyl)pyrimidin-2-yl]piperazine-1-carboxamide], the Ki in assay [1] was less than 10 nM; in assay [2], 100 to 1000 nM; in assay [3], more than 1000 nM; in assay [4], more than 1000 nM; in assay [5], 10 to 100 nM.

As to `COc1nc(N2C[C@@H](C)N(C(=O)NCCC3CCN(Cc4ccccc4)CC3)[C@@H](C)C2)ncc1C#N` [5-17, (2R,6S)-N-[2-(1-benzylpiperidin-4-yl)ethyl]-4-(5-cyano-4-methoxypyrimidin-2-yl)-2,6-dimethylpiperazine-1-carboxamide], the Ki was less than 10 nM in assay [1]; 100 to 1000 nM in assay [2]; more than 1000 nM in assay [3]; 100 to 1000 nM in assay [4]; 100 to 1000 nM in assay [5].

On to `C[C@@H]1CN(c2ncc(Cl)cn2)C[C@H](C)N1C(=O)NCCC1CCN(Cc2ccccc2)CC1` [5-18, (2S,6R)-N-[2-(1-benzylpiperidin-4-yl)ethyl]-4-(5-chloropyrimidin-2-yl)-2,6-dimethylpiperazine-1-carboxamide], for which the Ki is less than 10 nM in assay [1]; more than 1000 nM in assay [2]; more than 1000 nM in assay [3]; more than 1000 nM in assay [4]; 10 to 100 nM in assay [5].

With `C[C@@H]1CN(c2ncc(C#N)cn2)C[C@H](C)N1C(=O)NCCC1CCN(Cc2ccccc2)CC1` [5-20, (2S,6R)-N-[2-(1-benzylpiperidin-4-yl)ethyl]-4-(5-cyanopyrimidin-2-yl)-2,6-dimethylpiperazine-1-carboxamide], the Ki in assay [1] was less than 10 nM; in assay [2], more than 1000 nM; in assay [3], more than 1000 nM; in assay [4], more than 1000 nM; in assay [5], 100 to 1000 nM.

On to `C[C@@H]1CN(c2ncc(Cl)cn2)CCN1C(=O)NCCC1CCN(Cc2ccccc2)CC1` [5-22, (2R)-N-[2-(1-benzylpiperidin-4-yl)ethyl]-4-(5-chloropyrimidin-2-yl)-2-methylpiperazine-1-carboxamide], for which the Ki in assay [1] was less than 10 nM; in assay [2], more than 1000 nM; in assay [3], more than 1000 nM; in assay [4] it was 100 to 1000 nM; in assay [5], 10 to 100 nM.

For `CNc1nc(N2CCN(C(=O)NCCC3CCN(Cc4ccccc4)CC3)[C@H](C)C2)ncc1C#N` [5-23, (2R)-N-[2-(1-benzylpiperidin-4-yl)ethyl]-4-[5-cyano-4-(methylamino)pyrimidin-2-yl]-2-methylpiperazine-1-carboxamide], the Ki in assay [1] was less than 10 nM; in assay [2], more than 1000 nM; in assay [3] it was more than 1000 nM; in assay [4], 100 to 1000 nM; in assay [5], 10 to 100 nM.

For the compound `O=C(NCCC1CCN(Cc2ccccc2)CC1)N1CCN(c2ncc(C(F)(F)F)cn2)CC1` [5-24, N-[2-(1-benzylpiperidin-4-yl)ethyl]-4-[5-(trifluoromethyl)pyrimidin-2-yl]piperazine-1-carboxamide], the Ki was less than 10 nM in assay [1]; more than 1000 nM in assay [2]; more than 1000 nM in assay [3]; 100 to 1000 nM in assay [4]; 10 to 100 nM in assay [5].

Turning to `C[C@@H]1CN(c2ncc(C(F)(F)F)cn2)C[C@H](C)N1C(=O)NCCC1CCN(Cc2ccccc2)CC1` [5-27, (2R,6S)-N-[2-(1-benzylpiperidin-4-yl)ethyl]-2,6-dimethyl-4-[5-(trifluoromethyl)pyrimidin-2-yl]piperazine-1-carboxamide], the Ki in assay [1] is less than 10 nM; in assay [2] it was more than 1000 nM; in assay [3], more than 1000 nM; in assay [4] it was 100 to 1000 nM; in assay [5] it was 100 to 1000 nM.

As for `C[C@@H]1CN(c2ncc(C(F)(F)F)c(N)n2)C[C@H](C)N1C(=O)NCCC1CCN(Cc2ccccc2)CC1` [5-28, (2R,6S)-4-[4-amino-5-(trifluoromethyl)pyrimidin-2-yl]-N-[2-(1-benzylpiperidin-4-yl)ethyl]-2,6-dimethylpiperazine-1-carboxamide], the Ki is less than 10 nM in assay [1]; more than 1000 nM in assay [2]; more than 1000 nM in assay [3]; 100 to 1000 nM in assay [4]; 100 to 1000 nM in assay [5].

As to `C[C@@H]1CN(c2ncc(C(F)(F)F)c(N)n2)CCN1C(=O)NCCC1CCN(Cc2ccccc2)CC1` [5-29, (2R)-4-[4-amino-5-(trifluoromethyl)pyrimidin-2-yl]-N-[2-(1-benzylpiperidin-4-yl)ethyl]-2-methylpiperazine-1-carboxamide], the Ki in assay [1] is less than 10 nM; in assay [2] it was more than 1000 nM; in assay [3], more than 1000 nM; in assay [4] it was more than 1000 nM; in assay [5] it was 100 to 1000 nM.

For `Nc1nc(N2CCN(C(=O)NCCC3CCN(Cc4ccccc4)CC3)CC2)ncc1C(F)(F)F` [5-30, 4-[4-amino-5-(trifluoromethyl)pyrimidin-2-yl]-N-[2-(1-benzylpiperidin-4-yl)ethyl]piperazine-1-carboxamide], the Ki was less than 10 nM in assay [1]; more than 1000 nM in assay [2]; more than 1000 nM in assay [3]; more than 1000 nM in assay [4]; 100 to 1000 nM in assay [5].

Turning to `C[C@@H]1CN(c2ncc(Br)cn2)CCN1C(=O)NCCC1CCN(Cc2ccccc2)CC1` [5-31, (2R)-N-[2-(1-benzylpiperidin-4-yl)ethyl]-4-(5-bromopyrimidin-2-yl)-2-methylpiperazine-1-carboxamide], the Ki in assay [1] is less than 10 nM; in assay [2] it was 10 to 100 nM; in assay [3], 100 to 1000 nM; in assay [4], 10 to 100 nM; in assay [5], less than 10 nM.

Regarding `C[C@@H]1CN(c2ncc(Cl)c(N)n2)CCN1C(=O)NCCC1CCN(Cc2ccccc2)CC1` [5-32, (2R)-4-(4-amino-5-chloropyrimidin-2-yl)-N-[2-(1-benzylpiperidin-4-yl)ethyl]-2-methylpiperazine-1-carboxamide], the Ki in assay [1] is less than 10 nM; in assay [2] it was more than 1000 nM; in assay [3], more than 1000 nM; in assay [4], more than 1000 nM; in assay [5], 10 to 100 nM.

In the case of `C[C@@H]1CN(c2cc(F)c(F)c(F)c2)CCN1C(=O)NCCC1CCN(Cc2ccc3[nH]ccc3c2)CC1` [6-1, (2R)-N-{2-[1-(1H-indol-5-ylmethyl)piperidin-4-yl]ethyl}-2-methyl-4-(3,4,5-trifluorophenyl)piperazine-1-carboxamide], the Ki in assay [1] is less than 10 nM; in assay [2], 100 to 1000 nM; in assay [3], 100 to 1000 nM; in assay [4], 100 to 1000 nM; in assay [5], less than 10 nM.

As for `C[C@@H]1CN(c2cc(F)c(F)c(F)c2)CCN1C(=O)NCCC1CCN(Cc2cccc3c2OCC3)CC1` [6-3, (2R)-N-{2-[1-(2,3-dihydro-1-benzofuran-7-ylmethyl)piperidin-4-yl]ethyl}-2-methyl-4-(3,4,5-trifluorophenyl)piperazine-1-carboxamide], the Ki is less than 10 nM in assay [1]; 100 to 1000 nM in assay [2]; more than 1000 nM in assay [3]; 100 to 1000 nM in assay [4]; 10 to 100 nM in assay [5].

`C[C@@H]1CN(c2cc(F)c(F)c(F)c2)CCN1C(=O)NCCC1CCN(Cc2ccc(F)cc2)CC1` [6-4, (2R)-N-(2-{1-[(4-fluorophenyl)methyl]piperidin-4-yl}ethyl)-2-methyl-4-(3,4,5-trifluorophenyl)piperazine-1-carboxamide]: the Ki in assay [1] was less than 10 nM; in assay [2] it was more than 1000 nM; in assay [3] it was more than 1000 nM; in assay [4], 100 to 1000 nM; in assay [5], 100 to 1000 nM.

As for `C[C@@H]1CN(c2cc(F)c(F)c(F)c2)CCN1C(=O)NCCC1CCN(Cc2cccs2)CC1` [6-26, (2R)-2-methyl-N-{2-[1-(thiophen-2-ylmethyl)piperidin-4-yl]ethyl}-4-(3,4,5-trifluorophenyl)piperazine-1-carboxamide], the Ki is less than 10 nM in assay [1]; more than 1000 nM in assay [2]; more than 1000 nM in assay [3]; 100 to 1000 nM in assay [4]; 10 to 100 nM in assay [5].

A word on the Ki: it is the equilibrium dissociation constant of an inhibitor or competing ligand from its target.
